Measurements published in US20250270209A1 (INTERLINE THERAPEUTICS, INC., priority 2022, published 2025).

How the values were obtained:
LRRK2 wild type enzyme = LRRK2 wild type enzyme (Homo sapiens, UniProt Q5S007); assay: Biochemical Assay: LRRK2 TR-FRET (LanthaScreen) kinase assay with LRRKtide substrate; conditions: LRRK2 Inhibition, Table 8
Outline: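 TR-FRET detection (Tb-labelled phospho-LRRKtide antibody, EDTA stop, 30 min) followed a 120 min, 23 °C reaction of 3 nM wild-type human LRRK2 with LRRKtide (400 nM) and ATP (25 μM) in Tris pH 8.0. Compounds: 11-point 3-fold series from 10 μM, 15 min enzyme preincubation.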

[1] = biological target: T1, wild type LRRK2 overexpressed in recombinant HEK-293T cells (Homo sapiens, UniProt Q5S007); assay: pS935 LRRK2 Cell Assay (HTRF, phospho-LRRK2 Ser935); assay type: cell-based; conditions: LRRK2 Inhibition, Table 8, 2 hours compound incubation
T1 construct: host or cells: HEK293T (transient transfection with pCMV-LRRK2 WT plasmid)
Outline: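 Phospho-Ser935 LRRK2 measured by two-antibody HTRF (Eu-cryptate donor, d2 acceptor; 665/615 nm ratio) after overnight detection at 23° C. Before lysis, transiently LRRK2-transfected HEK-293T cells were exposed 2 h at 37° C to a 9-point, 3-fold series from 10 μM, with DMSO at 0.2%.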

Sequence of LRRK2 wild type enzyme (Q5S007 whole entry): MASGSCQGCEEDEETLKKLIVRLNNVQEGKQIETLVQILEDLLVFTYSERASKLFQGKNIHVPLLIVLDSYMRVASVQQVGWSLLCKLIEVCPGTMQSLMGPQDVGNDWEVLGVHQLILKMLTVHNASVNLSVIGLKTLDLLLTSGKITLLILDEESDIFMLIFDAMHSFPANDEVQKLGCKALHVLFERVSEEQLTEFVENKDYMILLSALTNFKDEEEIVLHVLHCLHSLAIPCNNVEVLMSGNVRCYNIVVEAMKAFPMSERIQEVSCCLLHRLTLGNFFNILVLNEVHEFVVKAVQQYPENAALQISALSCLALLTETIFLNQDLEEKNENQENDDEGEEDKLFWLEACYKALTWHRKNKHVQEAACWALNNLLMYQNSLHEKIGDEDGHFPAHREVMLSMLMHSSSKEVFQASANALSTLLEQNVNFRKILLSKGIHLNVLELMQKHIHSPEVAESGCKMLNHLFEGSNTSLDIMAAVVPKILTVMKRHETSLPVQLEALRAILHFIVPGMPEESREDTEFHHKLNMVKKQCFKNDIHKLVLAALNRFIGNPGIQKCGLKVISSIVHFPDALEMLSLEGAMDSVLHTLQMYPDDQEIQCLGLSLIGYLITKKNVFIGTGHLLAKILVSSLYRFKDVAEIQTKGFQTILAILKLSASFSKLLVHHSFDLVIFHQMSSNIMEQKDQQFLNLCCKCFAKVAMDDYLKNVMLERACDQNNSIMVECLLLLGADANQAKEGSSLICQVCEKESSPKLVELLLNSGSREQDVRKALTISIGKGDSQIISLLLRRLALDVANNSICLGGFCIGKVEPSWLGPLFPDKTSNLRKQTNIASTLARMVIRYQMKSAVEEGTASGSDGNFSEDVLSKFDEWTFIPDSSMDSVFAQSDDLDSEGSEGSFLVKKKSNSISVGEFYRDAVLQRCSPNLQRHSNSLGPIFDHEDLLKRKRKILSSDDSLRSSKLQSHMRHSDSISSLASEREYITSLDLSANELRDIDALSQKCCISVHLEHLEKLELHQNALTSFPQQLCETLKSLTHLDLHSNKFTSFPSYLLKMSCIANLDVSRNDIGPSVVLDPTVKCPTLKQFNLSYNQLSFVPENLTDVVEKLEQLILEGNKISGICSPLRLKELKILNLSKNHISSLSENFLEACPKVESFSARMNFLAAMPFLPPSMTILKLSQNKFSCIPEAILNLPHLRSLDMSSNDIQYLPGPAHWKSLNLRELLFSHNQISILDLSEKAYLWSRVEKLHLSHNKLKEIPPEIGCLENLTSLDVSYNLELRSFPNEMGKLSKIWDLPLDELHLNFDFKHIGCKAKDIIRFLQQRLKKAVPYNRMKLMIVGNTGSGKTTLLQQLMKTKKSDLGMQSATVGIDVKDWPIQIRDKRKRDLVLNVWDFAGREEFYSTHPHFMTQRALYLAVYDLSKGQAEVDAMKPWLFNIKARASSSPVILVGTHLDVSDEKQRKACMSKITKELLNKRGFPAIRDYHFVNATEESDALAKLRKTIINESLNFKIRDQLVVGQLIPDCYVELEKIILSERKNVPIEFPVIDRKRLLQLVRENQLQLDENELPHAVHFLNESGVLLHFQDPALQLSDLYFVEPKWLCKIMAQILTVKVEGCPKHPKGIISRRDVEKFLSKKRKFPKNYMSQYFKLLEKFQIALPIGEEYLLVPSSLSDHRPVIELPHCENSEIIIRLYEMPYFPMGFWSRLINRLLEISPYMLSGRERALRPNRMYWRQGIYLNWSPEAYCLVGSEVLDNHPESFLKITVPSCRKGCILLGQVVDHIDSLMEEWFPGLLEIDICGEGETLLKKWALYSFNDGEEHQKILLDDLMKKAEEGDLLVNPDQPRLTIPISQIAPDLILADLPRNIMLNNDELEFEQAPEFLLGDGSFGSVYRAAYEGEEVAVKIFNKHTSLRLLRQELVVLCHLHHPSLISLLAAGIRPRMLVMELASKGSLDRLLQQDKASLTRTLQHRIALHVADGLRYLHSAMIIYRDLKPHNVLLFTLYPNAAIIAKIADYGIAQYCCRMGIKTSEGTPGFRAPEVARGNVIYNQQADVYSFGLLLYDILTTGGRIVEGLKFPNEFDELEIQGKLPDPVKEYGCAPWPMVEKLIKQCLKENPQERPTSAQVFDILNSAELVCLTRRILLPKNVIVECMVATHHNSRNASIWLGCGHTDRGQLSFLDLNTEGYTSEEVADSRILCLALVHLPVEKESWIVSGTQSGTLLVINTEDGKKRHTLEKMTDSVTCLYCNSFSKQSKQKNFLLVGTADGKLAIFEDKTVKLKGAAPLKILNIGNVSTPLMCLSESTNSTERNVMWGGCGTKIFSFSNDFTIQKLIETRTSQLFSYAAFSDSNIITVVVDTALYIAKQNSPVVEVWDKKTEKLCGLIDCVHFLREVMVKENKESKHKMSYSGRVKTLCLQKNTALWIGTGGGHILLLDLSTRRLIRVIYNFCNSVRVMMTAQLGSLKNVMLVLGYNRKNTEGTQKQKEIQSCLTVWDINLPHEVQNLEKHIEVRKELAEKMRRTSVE
T1 sequence (Q5S007 whole entry): as above

| SMILES | IC50 (LRRK2 wild type enzyme) [nM] | IC50 [1] [nM] |
| --- | --- | --- |
| C[C@@H]1C[C@H](n2c(CC3CN(C(=O)c4cnn(C)c4)C3)nc3cnc4ccc(C#N)cc4c32)CCO1 [Compound 60, 2-{[1-(1-methyl-1H-pyrazole-4-carbonyl)azetidin-3-yl]methyl}-1-[(2R,4R)-2-methyloxan-4-yl]-1H-imidazo[4,5-c]quinoline-8-carbonitrile] | 4.29 | 1550 |
| C[C@@H]1C[C@H](n2c(CC(=O)NCc3cccnc3)nc3cnc4ccc(C#N)cc4c32)CCO1 [Compound 83, 2-{8-cyano-1-[(2R,4R)-2-methyloxan-4-yl]-1H-imidazo[4,5-c]quinolin-2-yl}-N-[(pyridin-3-yl)methyl]acetamide] | 0.33 | 25.1 |
| COc1ncncc1NC(=O)Cc1nc2cnc3ccc(C#N)cc3c2n1[C@@H]1CCO[C@H](C)C1 [Compound 251, N-(4-methoxy-5-pyrimidinyl){3-[(2R,4R)-2-methyltetrahydro-2H-pyran-4-yl]-12-cyano-3,5,8-triazatricyclo[7.4.0.0^2,6]trideca-1(9),2(6),4,7,10,12-hexaen-4-yl}acetamide] | 0.382 | 3.56 |
| Cc1nc(C)c(NC(=O)Cc2nc3cnc4ccc(Cl)cc4c3n2[C@@H]2CCO[C@H](C)C2)c(C)n1 [Compound 217, N-(2,4,6-trimethyl-5-pyrimidinyl){3-[(2R,4R)-2-methyltetrahydro-2H-pyran-4-yl]-12-chloro-3,5,8-triazatricyclo[7.4.0.0^2,6]trideca-1,4,6,8,10,12-hexaen-4-yl}acetamide] | 0.294 | 5.53 |
| COCCn1cc(N2CC(c3nc4cnc5ccc(C#N)cc5c4n3[C@@H]3CCO[C@H](C)C3)CC2=O)cn1 (stereo partly drawn) [Compound 171, 2-{1-[1-(2-methoxyethyl)-1H-pyrazol-4-yl]-5-oxopyrrolidin-3-yl}-1-[(2R,4R)-2-methyloxan-4-yl]-1H-imidazo[4,5-c]quinoline-8-carbonitrile] | 1.46 | 434 |
| C[C@@H]1C[C@H](n2c(C3CN(C(=O)C4CC4)C3)nc3cnc4ccc(C#N)cc4c32)CCO1 [Compound 68, 2-(1-cyclopropanecarbonylazetidin-3-yl)-1-[(2R,4R)-2-methyloxan-4-yl]-1H-imidazo[4,5-c]quinoline-8-carbonitrile] | 7.43 | 1140 |
| C[C@@H]1C[C@H](n2c(CC(=O)NC3(C#N)CC3)nc3cnc4ccc(C#N)cc4c32)CCO1 [Compound 282, N-1-cyanocyclopropyl{3-[(2R,4R)-2-methyltetrahydro-2H-pyran-4-yl]-12-cyano-3,5,8-triazatricyclo[7.4.0.0^2,6]trideca-1,4,6,8,10,12-hexaen-4-yl}acetamide] | 0.619 | 188 |
| Cc1ncccc1NC(=O)Cc1nc2cnc3ccc(C#N)cc3c2n1[C@@H]1CCO[C@H](C)C1 [Compound 316, N-(2-methyl-3-pyridyl){3-[(2R,4R)-2-methyltetrahydro-2H-pyran-4-yl]-12-cyano-3,5,8-triazatricyclo[7.4.0.0^2,6]trideca-1(9),2(6),4,7,10,12-hexaen-4-yl}acetamide] | 0.527 | 6.81 |
| C[C@@H]1C[C@H](n2c(C3CC(=O)N(CC4CC4)C3)nc3cnc4ccc(Cl)cc4c32)CCO1 (stereo partly drawn) [Compound 3, 4-{8-chloro-1-[(2R,4R)-2-methyloxan-4-yl]-1H-imidazo[4,5-c]quinolin-2-yl}-1-(cyclopropylmethyl)pyrrolidin-2-one] | 1.21 | 88.7 |
| C[C@@H]1C[C@H](n2c(CC(=O)NC3CC3(C)C)nc3cnc4ccc(C#N)cc4c32)CCO1 (stereo partly drawn) [Compound 252, N-2,2-dimethylcyclopropyl{3-[(2R,4R)-2-methyltetrahydro-2H-pyran-4-yl]-12-cyano-3,5,8-triazatricyclo[7.4.0.0^2,6]trideca-1,4,6,8,10,12-hexaen-4-yl}acetamide] | 0.645 | 18.1 |
| C[C@@H]1C[C@H](n2c(CC(=O)N[C@@H]3C[C@H]3c3cccnc3)nc3cnc4ccc(C#N)cc4c32)CCO1 [Compound 348, N-[(1R,2S)-2-(3-pyridyl)cyclopropyl]{3-[(2R,4R)-2-methyltetrahydro-2H-pyran-4-yl]-12-cyano-3,5,8-triazatricyclo[7.4.0.0^2,6]trideca-1(9),2(6),4,7,10,12-hexaen-4-yl}acetamide] | 0.724 | 32.3 |
| Cc1ccc(CN2CC(c3nc4cnc5ccc(C#N)cc5c4n3[C@@H]3CCO[C@H](C)C3)CC2=O)cn1 (stereo partly drawn) [Compound 13, 1-[(2R,4R)-2-methyloxan-4-yl]-2-{1-[(6-methylpyridin-3-yl)methyl]-5-oxopyrrolidin-3-yl}-1H-imidazo[4,5-c]quinoline-8-carbonitrile] | 1.19 | 180 |
| CN1CC(n2c(CC(=O)NCC3CC3)nc3cnc4ccc(C#N)cc4c32)CCC1=O (single isomer, unassigned) [Compound 91] | 40.4 | 6910 |
| C[C@@H]1C[C@H](n2c(CC(=O)NC3(C)COC3)nc3cnc4ccc(Cl)cc4c32)CCO1 [Compound 323, N-(3-methyl-3-oxetanyl){3-[(2R,4R)-2-methyltetrahydro-2H-pyran-4-yl]-12-chloro-3,5,8-triazatricyclo[7.4.0.0^2,6]trideca-1(9),2(6),4,7,10,12-hexaen-4-yl}acetamide] | 2.72 | 76.9 |
| C[C@@H]1C[C@H](n2c(CC(=O)Nc3cnn(C)c(=O)c3)nc3cnc4ccc(C#N)cc4c32)CCO1 [Compound 264, N-(1-methyl-6-oxo-1,6-dihydro-4-pyridazinyl){3-[(2R,4R)-2-methyltetrahydro-2H-pyran-4-yl]-12-cyano-3,5,8-triazatricyclo[7.4.0.0^2,6]trideca-1,4,6,8,10,12-hexaen-4-yl}acetamide] | 0.486 | 74.4 |
| C[C@@H]1C[C@H](n2c([C@@H]3CN(CC4CC4)S(=O)(=O)C3)nc3cnc4ccc(C#N)cc4c32)CCO1 [Compound 1, 2-[(4S)-2-(cyclopropylmethyl)-1,1-dioxo-1X^6,2-thiazolidin-4-yl]-1-[(2R,4R)-2-methyloxan-4-yl]-1H-imidazo[4,5-c]quinoline-8-carbonitrile] | 2.45 | 168 |
| COc1ncc(NC(=O)Cc2nc3cnc4ccc(C#N)cc4c3n2[C@@H]2CCO[C@H](C)C2)cn1 [Compound 291, N-(2-methoxy-5-pyrimidinyl){3-[(2R,4R)-2-methyltetrahydro-2H-pyran-4-yl]-12-cyano-3,5,8-triazatricyclo[7.4.0.0^2,6]trideca-1,4,6,8,10,12-hexaen-4-yl}acetamide] | 0.527 | 18 |
| CC(C)NC(=O)Cc1nc2cnc3ccc(C#N)cc3c2n1[C@@H]1CCO[C@H](C)C1 [Compound 14, 2-{8-cyano-1-[(2R,4R)-2-methyloxan-4-yl]-1H-imidazo[4,5-c]quinolin-2-yl}-N-(propan-2-yl)acetamide] | 7.01 | 43.7 |
| C[C@@H]1C[C@H](n2c(C3CC(=O)N([C@@H](C)C4CC4)C3)nc3cnc4ccc(C#N)cc4c32)CCO1 (stereo partly drawn) [Compound 35, 2-{1-[(1S)-1-cyclopropylethyl]-5-oxopyrrolidin-3-yl}-1-[(2R,4R)-2-methyloxan-4-yl]-1H-imidazo[4,5-c]quinoline-8-carbonitrile] | 2.98 | 179 |
| Cc1ccncc1NC(=O)Cc1nc2cnc3ccc(C#N)cc3c2n1[C@@H]1CCO[C@H](C)C1 [Compound 292, N-(4-methyl-3-pyridyl){3-[(2R,4R)-2-methyltetrahydro-2H-pyran-4-yl]-12-cyano-3,5,8-triazatricyclo[7.4.0.0^2,6]trideca-1,4,6,8,10,12-hexaen-4-yl}acetamide] | 0.473 | 8.23 |
| C[C@@H]1C[C@H](n2c(C3CC(=O)N(c4cnn(C)c4)C3)nc3cnc4ccc(C#N)cc4c32)CCO1 (mixture of isomers) [Compound 59, 2-[(3RS)-1-(1-methyl-1H-pyrazol-4-yl)-5-oxopyrrolidin-3-yl]-1-[(2R,4R)-2-methyloxan-4-yl]-1H-imidazo[4,5-c]quinoline-8-carbonitrile] | 1.06 | 118 |
| COCC(C)(C)CNC(=O)Cc1nc2cnc3ccc(C#N)cc3c2n1[C@@H]1CCO[C@H](C)C1 [Compound 266, N-(3-methoxy-2,2-dimethylpropyl){3-[(2R,4R)-2-methyltetrahydro-2H-pyran-4-yl]-12-cyano-3,5,8-triazatricyclo[7.4.0.0^2,6]trideca-1,4,6,8,10,12-hexaen-4-yl}acetamide] | 0.521 | 8 |
| COc1cc(C2CC2)ncc1NC(=O)Cc1nc2cnc3ccc(C#N)cc3c2n1[C@@H]1CCO[C@H](C)C1 [Compound 213, N-(6-cyclopropyl-4-methoxy-3-pyridyl){3-[(2R,4R)-2-methyltetrahydro-2H-pyran-4-yl]-12-cyano-3,5,8-triazatricyclo[7.4.0.0^2,6]trideca-1,4,6,8,10,12-hexaen-4-yl}acetamide] | 0.404 | 4.01 |
| C[C@@H]1C[C@H](n2c(CC(=O)NCC3(CO)CC3)nc3cnc4ccc(C#N)cc4c32)CCO1 [Compound 242, N-[1-(hydroxymethyl)cyclopropyl]methyl{3-[(2R,4R)-2-methyltetrahydro-2H-pyran-4-yl]-12-cyano-3,5,8-triazatricyclo[7.4.0.0^2,6]trideca-1(9),2(6),4,7,10,12-hexaen-4-yl}acetamide] | 0.69 | 106 |
| C[C@@H]1C[C@H](n2c(CC(=O)NCC3CC3)nc3cnc4ccc(C#N)cc4c32)CCO1 [Compound 54, 2-{8-cyano-1-[(2R,4R)-2-methyloxan-4-yl]-1H-imidazo[4,5-c]quinolin-2-yl}-N-(cyclopropylmethyl)acetamide] | 0.336 | 14.9 |
